Results taken from the kinase profiling compilation of Christmann-Franck et al. (2016).
Blank lines part the entries; values can stand above or below the compound they belong to.

Key:
Assay in all cases: radiometric filter-binding kinase assay
[1] = target: GCK (human) (UniProt Q12851)
[2] = system: PAK2 (human), Q13177 [T402E]
[3] = target: PRKCA (human) (UniProt P17252)
[4] = target: MAPKAPK5 (human) (UniProt Q8IW41)
[5] = target: MINK1 (human) (UniProt Q8N4C8)
[6] = target: MAPK10 (human) (UniProt P53779)
[7] = target: MAPK12 (human) (UniProt P53778)
[8] = target: PRKACA (human) (UniProt P17612)
[9] = target: PHKG1 (human) (UniProt Q16816)
[10] = target: EPHA2 (human) (UniProt P29317)
[11] = target: FLT1 (human) (UniProt P17948)
Chain of FLT1 (human) (P17948 whole entry, looked up): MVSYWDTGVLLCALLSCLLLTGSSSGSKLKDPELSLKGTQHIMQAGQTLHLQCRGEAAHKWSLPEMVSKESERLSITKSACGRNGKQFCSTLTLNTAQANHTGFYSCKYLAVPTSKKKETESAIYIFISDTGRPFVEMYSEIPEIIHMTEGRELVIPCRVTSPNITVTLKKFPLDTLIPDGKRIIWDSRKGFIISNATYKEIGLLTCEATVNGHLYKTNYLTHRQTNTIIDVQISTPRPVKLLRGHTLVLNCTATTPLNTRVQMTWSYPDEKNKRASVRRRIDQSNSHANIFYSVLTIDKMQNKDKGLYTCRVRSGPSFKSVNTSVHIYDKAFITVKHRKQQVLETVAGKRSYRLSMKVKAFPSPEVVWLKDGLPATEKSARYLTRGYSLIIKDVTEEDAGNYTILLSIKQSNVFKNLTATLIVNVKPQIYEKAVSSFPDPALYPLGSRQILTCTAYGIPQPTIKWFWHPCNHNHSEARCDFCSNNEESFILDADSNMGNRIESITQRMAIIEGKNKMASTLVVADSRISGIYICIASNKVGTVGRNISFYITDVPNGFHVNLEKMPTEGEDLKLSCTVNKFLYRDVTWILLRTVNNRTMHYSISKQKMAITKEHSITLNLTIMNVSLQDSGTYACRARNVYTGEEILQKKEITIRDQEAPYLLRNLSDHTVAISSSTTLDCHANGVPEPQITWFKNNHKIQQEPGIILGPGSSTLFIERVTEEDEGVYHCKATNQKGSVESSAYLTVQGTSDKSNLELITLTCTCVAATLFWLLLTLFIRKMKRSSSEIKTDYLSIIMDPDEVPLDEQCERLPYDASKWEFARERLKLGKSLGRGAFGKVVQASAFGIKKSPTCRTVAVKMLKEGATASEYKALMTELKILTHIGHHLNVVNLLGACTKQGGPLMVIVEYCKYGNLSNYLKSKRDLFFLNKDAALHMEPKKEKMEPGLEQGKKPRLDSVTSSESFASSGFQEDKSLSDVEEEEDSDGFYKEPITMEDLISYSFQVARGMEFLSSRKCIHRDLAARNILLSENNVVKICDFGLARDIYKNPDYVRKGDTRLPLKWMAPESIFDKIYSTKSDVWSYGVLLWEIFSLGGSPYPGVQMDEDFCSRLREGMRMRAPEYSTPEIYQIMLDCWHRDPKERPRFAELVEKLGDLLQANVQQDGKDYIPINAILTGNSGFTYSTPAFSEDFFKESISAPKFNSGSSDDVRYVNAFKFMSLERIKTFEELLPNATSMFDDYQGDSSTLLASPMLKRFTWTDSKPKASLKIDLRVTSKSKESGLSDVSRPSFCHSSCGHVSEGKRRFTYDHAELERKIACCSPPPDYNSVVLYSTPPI

[12] = target: SRPK1 (human) (UniProt Q96SB4)
[13] = target: PIM3 (human) (UniProt Q86V86)
[14] = target: EEF2K (human) (UniProt O00418)
[15] = target: CDK2 CCNA2 (human) (UniProt P20248+P24941)
[16] = target: AURKB (human) (UniProt Q96GD4)
Chain of AURKB (human) (Q96GD4 whole entry, looked up): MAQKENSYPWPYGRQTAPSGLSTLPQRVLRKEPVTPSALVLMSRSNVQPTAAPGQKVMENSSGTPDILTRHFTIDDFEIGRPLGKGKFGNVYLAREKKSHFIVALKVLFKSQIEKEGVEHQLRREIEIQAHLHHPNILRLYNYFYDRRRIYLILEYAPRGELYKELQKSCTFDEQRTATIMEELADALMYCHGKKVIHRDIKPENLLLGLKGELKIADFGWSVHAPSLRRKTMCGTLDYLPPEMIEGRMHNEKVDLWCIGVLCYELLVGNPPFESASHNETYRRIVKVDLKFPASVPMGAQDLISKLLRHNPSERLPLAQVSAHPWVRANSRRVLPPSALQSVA

[17] = target: FGFR1 (human) (UniProt P11362)
[18] = target: CHEK1 (human) (UniProt O14757)
[19] = target: INSRR (human) (UniProt P14616)
Chain of INSRR (human) (P14616 whole entry, looked up): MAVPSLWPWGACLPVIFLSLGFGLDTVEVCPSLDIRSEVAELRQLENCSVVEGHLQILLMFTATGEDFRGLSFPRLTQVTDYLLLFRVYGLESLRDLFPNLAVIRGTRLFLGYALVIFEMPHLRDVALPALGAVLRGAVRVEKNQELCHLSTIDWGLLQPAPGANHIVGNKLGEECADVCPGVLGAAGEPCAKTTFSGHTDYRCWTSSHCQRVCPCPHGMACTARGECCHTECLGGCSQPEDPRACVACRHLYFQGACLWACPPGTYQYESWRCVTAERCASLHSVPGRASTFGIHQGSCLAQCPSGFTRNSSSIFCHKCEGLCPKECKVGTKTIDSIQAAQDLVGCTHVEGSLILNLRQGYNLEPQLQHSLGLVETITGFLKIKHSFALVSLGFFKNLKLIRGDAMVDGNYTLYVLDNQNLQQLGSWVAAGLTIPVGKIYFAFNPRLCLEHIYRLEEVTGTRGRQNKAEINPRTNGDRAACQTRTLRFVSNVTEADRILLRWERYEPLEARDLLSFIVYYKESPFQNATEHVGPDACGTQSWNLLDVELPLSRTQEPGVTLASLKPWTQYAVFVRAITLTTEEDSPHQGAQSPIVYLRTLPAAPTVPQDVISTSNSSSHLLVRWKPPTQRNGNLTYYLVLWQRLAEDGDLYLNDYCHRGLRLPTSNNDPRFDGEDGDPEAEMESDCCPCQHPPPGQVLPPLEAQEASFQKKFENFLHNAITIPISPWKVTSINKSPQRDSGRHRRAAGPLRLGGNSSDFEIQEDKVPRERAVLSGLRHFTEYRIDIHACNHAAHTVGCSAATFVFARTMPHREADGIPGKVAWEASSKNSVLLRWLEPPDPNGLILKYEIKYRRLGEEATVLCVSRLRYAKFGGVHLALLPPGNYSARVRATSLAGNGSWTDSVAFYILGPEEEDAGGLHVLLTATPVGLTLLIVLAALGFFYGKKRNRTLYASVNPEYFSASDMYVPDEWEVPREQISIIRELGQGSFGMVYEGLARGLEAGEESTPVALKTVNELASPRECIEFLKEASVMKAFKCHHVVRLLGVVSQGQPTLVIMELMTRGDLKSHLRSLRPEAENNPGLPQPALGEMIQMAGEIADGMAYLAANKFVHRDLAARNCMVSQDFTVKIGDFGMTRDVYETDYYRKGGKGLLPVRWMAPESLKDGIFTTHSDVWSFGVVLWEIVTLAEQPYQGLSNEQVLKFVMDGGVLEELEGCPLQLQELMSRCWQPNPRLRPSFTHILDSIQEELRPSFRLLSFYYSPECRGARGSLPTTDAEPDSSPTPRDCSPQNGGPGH

[20] = target: MST4 (human) (UniProt Q9P289)
[21] = target: CSNK2A1 (human) (UniProt P68400)
[22] = target: ERBB4 (human) (UniProt Q15303)
[23] = target: MELK (human) (UniProt Q14680)
[24] = target: RPS6KA3 KD1 KD2 (human) (UniProt P51812)
[25] = target: DYRK2 (human) (UniProt Q92630)
[26] = target: RIPK2 (human) (UniProt O43353)
[27] = target: MAPK15 (human) (UniProt Q8TD08)
[28] = target: PIM2 (human) (UniProt Q9P1W9)
[29] = target: MAP2K2 (human) (UniProt P36507)
Chain of MAP2K2 (human) (P36507 whole entry, looked up): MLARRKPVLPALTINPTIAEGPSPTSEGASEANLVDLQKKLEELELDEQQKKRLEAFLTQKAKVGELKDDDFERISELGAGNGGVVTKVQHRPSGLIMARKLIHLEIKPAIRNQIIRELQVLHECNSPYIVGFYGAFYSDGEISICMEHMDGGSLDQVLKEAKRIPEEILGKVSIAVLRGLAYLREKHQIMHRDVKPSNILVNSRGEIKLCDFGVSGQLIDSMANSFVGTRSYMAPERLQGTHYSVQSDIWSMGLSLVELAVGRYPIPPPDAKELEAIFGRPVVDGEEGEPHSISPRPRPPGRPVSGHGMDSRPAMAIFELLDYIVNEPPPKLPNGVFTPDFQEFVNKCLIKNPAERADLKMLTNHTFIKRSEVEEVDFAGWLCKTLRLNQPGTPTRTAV

[30] = system: SGK1 (human), O00141 [S422D]
[31] = target: MAP2K6 (human) (UniProt P52564)
[32] = target: BRSK1 (human) (UniProt Q8TDC3)
[33] = target: TAOK1 (human) (UniProt Q7L7X3)
Chain of TAOK1 (human) (Q7L7X3 whole entry, looked up): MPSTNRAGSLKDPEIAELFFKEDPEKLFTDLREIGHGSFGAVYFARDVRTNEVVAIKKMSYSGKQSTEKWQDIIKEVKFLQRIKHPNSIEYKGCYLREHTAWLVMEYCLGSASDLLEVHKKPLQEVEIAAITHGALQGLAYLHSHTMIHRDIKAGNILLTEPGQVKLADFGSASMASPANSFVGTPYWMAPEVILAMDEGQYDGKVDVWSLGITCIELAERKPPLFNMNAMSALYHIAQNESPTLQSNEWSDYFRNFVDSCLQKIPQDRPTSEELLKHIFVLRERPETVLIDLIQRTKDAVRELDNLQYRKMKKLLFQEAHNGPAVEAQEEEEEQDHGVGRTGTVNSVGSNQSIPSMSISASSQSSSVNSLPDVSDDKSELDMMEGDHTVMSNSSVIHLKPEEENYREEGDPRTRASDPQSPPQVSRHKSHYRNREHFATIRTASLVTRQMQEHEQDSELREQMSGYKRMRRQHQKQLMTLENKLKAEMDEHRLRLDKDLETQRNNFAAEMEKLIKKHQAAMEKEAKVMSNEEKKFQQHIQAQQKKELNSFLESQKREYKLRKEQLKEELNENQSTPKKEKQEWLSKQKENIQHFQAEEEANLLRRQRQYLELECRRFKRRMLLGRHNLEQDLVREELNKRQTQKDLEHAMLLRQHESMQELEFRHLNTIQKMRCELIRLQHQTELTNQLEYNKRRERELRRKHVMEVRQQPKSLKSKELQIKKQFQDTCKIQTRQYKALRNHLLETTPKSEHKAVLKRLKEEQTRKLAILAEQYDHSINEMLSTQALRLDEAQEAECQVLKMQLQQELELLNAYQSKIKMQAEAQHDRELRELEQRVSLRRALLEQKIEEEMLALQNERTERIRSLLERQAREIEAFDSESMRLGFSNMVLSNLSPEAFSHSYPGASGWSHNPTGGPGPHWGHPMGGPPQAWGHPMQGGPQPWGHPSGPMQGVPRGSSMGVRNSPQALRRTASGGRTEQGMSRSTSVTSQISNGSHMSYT

[34] = target: MAPKAPK3 (human) (UniProt Q16644); settings: compound 1.0 µM
[35] = target: AURKA (human) (UniProt O14965)

Chain of MAPKAPK5 (human) (Q8IW41 whole entry, looked up): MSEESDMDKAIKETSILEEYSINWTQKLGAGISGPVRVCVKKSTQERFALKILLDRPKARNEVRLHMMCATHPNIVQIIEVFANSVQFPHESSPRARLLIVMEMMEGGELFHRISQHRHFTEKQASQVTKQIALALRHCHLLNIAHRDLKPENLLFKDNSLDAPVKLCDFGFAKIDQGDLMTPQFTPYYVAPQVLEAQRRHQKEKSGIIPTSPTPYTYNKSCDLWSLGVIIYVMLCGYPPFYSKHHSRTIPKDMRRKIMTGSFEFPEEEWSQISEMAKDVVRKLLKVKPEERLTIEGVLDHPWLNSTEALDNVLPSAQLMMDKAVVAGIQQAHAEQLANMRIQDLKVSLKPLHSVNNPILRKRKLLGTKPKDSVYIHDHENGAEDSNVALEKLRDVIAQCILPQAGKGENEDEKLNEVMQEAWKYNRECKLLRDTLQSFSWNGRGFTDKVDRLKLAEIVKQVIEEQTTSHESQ

residual activity ([1]; compound 1.0 µM): 22% | residual activity ([1]; compound 10.0 µM): 11% | residual activity ([2]; compound 1.0 µM): 95% | residual activity ([2]; compound 10.0 µM): 107% | residual activity ([3]; compound 1.0 µM): 101% | residual activity ([3]; compound 10.0 µM): 94% | residual activity ([4]; compound 1.0 µM): 82% | residual activity ([4]; compound 10.0 µM): 89% | residual activity ([5]; compound 1.0 µM): 72% | residual activity ([5]; compound 10.0 µM): 55% | residual activity ([6]; compound 1.0 µM): 87% | residual activity ([6]; compound 10.0 µM): 77% | residual activity ([7]; compound 1.0 µM): 88% | residual activity ([7]; compound 10.0 µM): 100% | residual activity ([8]; compound 10.0 µM): 92% | residual activity ([9]; compound 1.0 µM): 97% | residual activity ([9]; compound 10.0 µM): 92% | residual activity ([10]; compound 1.0 µM): 69% | residual activity ([10]; compound 10.0 µM): 81% | residual activity ([11]; compound 1.0 µM): 87% | residual activity ([11]; compound 10.0 µM): 107% | residual activity ([12]; compound 1.0 µM): 90% | residual activity ([12]; compound 10.0 µM): 89% | residual activity ([13]; compound 1.0 µM): 67% | residual activity ([13]; compound 10.0 µM): 55% | residual activity ([14]; compound 1.0 µM): 99% | residual activity ([14]; compound 10.0 µM): 109% | residual activity ([15]; compound 1.0 µM): 90% | residual activity ([15]; compound 10.0 µM): 85% | residual activity ([16]; compound 1.0 µM): 93% | residual activity ([16]; compound 10.0 µM): 82% | residual activity ([17]; compound 1.0 µM): 98% | residual activity ([17]; compound 10.0 µM): 93% | residual activity ([18]; compound 1.0 µM): 81% | residual activity ([18]; compound 10.0 µM): 100% | residual activity ([19]; compound 1.0 µM): 74% | residual activity ([19]; compound 10.0 µM): 77% | residual activity ([20]; compound 1.0 µM): 93% | residual activity ([20]; compound 10.0 µM): 83% | residual activity ([21]; compound 1.0 µM): 97% | residual activity ([21]; compound 10.0 µM): 97% | residual activity ([22]; compound 1.0 µM): 110% | residual activity ([22]; compound 10.0 µM): 97% | residual activity ([23]; compound 1.0 µM): 49% | residual activity ([23]; compound 10.0 µM): 49% | residual activity ([24]; compound 1.0 µM): 89% | residual activity ([24]; compound 10.0 µM): 100% | residual activity ([25]; compound 1.0 µM): 73% | residual activity ([25]; compound 10.0 µM): 85% | residual activity ([26]; compound 1.0 µM): 57% | residual activity ([26]; compound 10.0 µM): 38% | residual activity ([28]; compound 1.0 µM): 91% | residual activity ([28]; compound 10.0 µM): 96% | residual activity ([29]; compound 1.0 µM): 87% | residual activity ([29]; compound 10.0 µM): 75% | residual activity ([30]; compound 1.0 µM): 96% | residual activity ([30]; compound 10.0 µM): 82% | residual activity ([31]; compound 1.0 µM): 101% | residual activity ([31]; compound 10.0 µM): 92% | residual activity ([32]; compound 1.0 µM): 97% | residual activity ([32]; compound 10.0 µM): 86% | residual activity ([33]; compound 1.0 µM): 91% | residual activity ([33]; compound 10.0 µM): 94% | residual activity [34]: 88% | residual activity ([35]; compound 1.0 µM): 101% | residual activity ([35]; compound 10.0 µM): 108%
Structure (SMILES): CC(C)(C#N)c1ccc(N2C(=O)OCc3cnc4ccc(-c5cnc6ccccc6c5)cc4c32)cc1
residual activity ([27]; compound 1.0 µM): 73% | residual activity ([27]; compound 10.0 µM): 67%

residual activity ([1]; compound 0.1 µM): 98% | residual activity ([1]; compound 1.0 µM): 73% | residual activity ([2]; compound 0.1 µM): 99% | residual activity ([2]; compound 1.0 µM): 90% | residual activity ([3]; compound 0.1 µM): 93% | residual activity ([3]; compound 1.0 µM): 90% | residual activity ([4]; compound 0.1 µM): 92% | residual activity ([4]; compound 1.0 µM): 82% | residual activity ([5]; compound 0.1 µM): 94% | residual activity ([5]; compound 1.0 µM): 78% | residual activity ([6]; compound 0.1 µM): 14% | residual activity ([6]; compound 1.0 µM): 13% | residual activity ([7]; compound 0.1 µM): 99% | residual activity ([7]; compound 1.0 µM): 95% | residual activity ([8]; compound 0.1 µM): 105% | residual activity ([8]; compound 1.0 µM): 93% | residual activity ([9]; compound 0.1 µM): 85% | residual activity ([9]; compound 1.0 µM): 86% | residual activity ([10]; compound 0.1 µM): 118% | residual activity ([10]; compound 1.0 µM): 111% | residual activity ([11]; compound 0.1 µM): 100% | residual activity ([11]; compound 1.0 µM): 53% | residual activity ([12]; compound 0.1 µM): 97% | residual activity ([12]; compound 1.0 µM): 84% | residual activity ([13]; compound 1.0 µM): 83% | residual activity ([14]; compound 0.1 µM): 98% | residual activity ([14]; compound 1.0 µM): 95% | residual activity ([15]; compound 0.1 µM): 107% | residual activity ([15]; compound 1.0 µM): 92% | residual activity ([16]; compound 0.1 µM): 87% | residual activity ([16]; compound 1.0 µM): 86% | residual activity ([17]; compound 0.1 µM): 103% | residual activity ([17]; compound 1.0 µM): 82% | residual activity ([18]; compound 0.1 µM): 102% | residual activity ([18]; compound 1.0 µM): 87% | residual activity ([19]; compound 0.1 µM): 93% | residual activity ([20]; compound 0.1 µM): 96% | residual activity ([20]; compound 1.0 µM): 79% | residual activity ([21]; compound 0.1 µM): 93% | residual activity ([21]; compound 1.0 µM): 77% | residual activity ([22]; compound 0.1 µM): 102% | residual activity ([22]; compound 1.0 µM): 98% | residual activity ([23]; compound 0.1 µM): 91% | residual activity ([23]; compound 1.0 µM): 63% | residual activity ([24]; compound 0.1 µM): 82% | residual activity ([24]; compound 1.0 µM): 76% | residual activity ([25]; compound 0.1 µM): 73% | residual activity ([25]; compound 1.0 µM): 72% | residual activity ([26]; compound 0.1 µM): 82% | residual activity ([26]; compound 1.0 µM): 49% | residual activity ([28]; compound 0.1 µM): 104% | residual activity ([28]; compound 1.0 µM): 99% | residual activity ([29]; compound 0.1 µM): 98% | residual activity ([29]; compound 1.0 µM): 92% | residual activity ([31]; compound 0.1 µM): 100% | residual activity ([31]; compound 1.0 µM): 95% | residual activity ([32]; compound 0.1 µM): 99% | residual activity ([32]; compound 1.0 µM): 87% | residual activity ([33]; compound 0.1 µM): 124% | residual activity ([33]; compound 1.0 µM): 97% | residual activity [34]: 90% | residual activity ([35]; compound 0.1 µM): 97% | residual activity ([35]; compound 1.0 µM): 91%
Structure (SMILES): Cc1cc(NC(=O)c2cccc(NC(=O)/C=C/CN(C)C)c2)ccc1Nc1nccc(-c2cccnc2)n1
residual activity ([27]; compound 0.1 µM): 90% | residual activity ([27]; compound 1.0 µM): 64%
